In PubChem BioAssay (NCI) one finds TGI and GI50 data, which are given here for 30 molecules.

Each structure is given as a SMILES string. Where “and” joins values, the source holds several entries; their conditions need not be identical. Equal values may be shown once.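 Where inhibition never reached the appropriate level, the endpoint shown equals the highest concentration tested. Otherwise, values were interpolated linearly from a five-concentration, 48-hour dose response in 96-well plates. Abbreviation: GI50, concentration required for 50% inhibition of growth. TGI denotes the concentration required for complete inhibition of growth.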

Common to all, as to experiment: DTP human tumour cell line panel, 48 h
Test [1] deals with 786-0 renal.
The test system of test [2] is HCC-2998 colon.
Test [3] concerns HT29 colon.
For test [4], the system named is OVCAR-8 ovarian.
Test [5] relates to SF-295 CNS.
In test [6] the test system is SK-MEL-2 melanoma.
In test [7] the test system is SR leukemia.
Test [8] concerns U251 CNS.
Test [9] concerns DU-145 prostate.
Test [10] concerns MDA-MB-435.

As for `CC1=C[P+](Cc2ccccc2)(c2ccccc2)CC1` (stereo not given), the total growth inhibition concentration (TGI) in test [1], in test [2], in test [3], in [4], in test [5] and in test [6] was more than 100 µM each time. The TGI in [7] and in test [8] was more than 100 µM each time. The GI50 in test [2] was 97.7 µM and > 100 µM and 39.3 µM; in [8] it was 23.1 µM and 58.1 µM and 9.71 µM.

Regarding `COc1cc(O)c2c(c1)C(=O)c1cc3c(c(O)c1C2=O)C(OC1OC(C)C(O)C(O)C1OC)C(OC)C(C)(O)C3=O` (stereo not given), the GI50 in test [1] was 2.42 µM; in [9] it was 3.11 µM; in test [2] it was 2.22 µM; in [3], 2.44 µM; in test [4] it was 1.42 µM and 0.373 µM; in [5], 1.53 µM. Further, the results for the GI50 in [6], in test [7] and in test [8] were 2.49 µM, 2.16 µM and 2.56 µM, respectively. The concentration for total growth inhibition (TGI) in [1] was 40.5 µM; in test [9], 11.5 µM; in [2] it was 5.14 µM and 12.4 µM; in test [3] it was 11.8 µM and 8.61 µM; in test [4], 5.27 µM and 1.62 µM; in [5] it was 4.7 µM and 5.97 µM. Moreover, the TGI in test [6] was 6.52 µM and 9.1 µM; in [7] it was more than 100 µM; in test [8] it was 13.2 µM and 11.8 µM.

Take `O=C1CC(O)(c2ccccc2)C(c2ccccc2)=C1c1ccccc1` (stereo not given): the TGI in test [1], in test [2], in test [3], in [4], in [5] and in test [6] was more than 100 µM throughout.

With `CCOc1ccc(NC(=O)C2=C(C)NC(C)=C(C(=O)Nc3ccc(OCC)cc3)C2c2ccccc2)cc1`, the TGI in test [1], in test [2], in test [3], in test [4], in test [5] and in [6] was more than 100 µM throughout. Moreover, in [8], the TGI is more than 100 µM.

Consider `Clc1cc2n[se]nc2cc1Cl`, for which the concentration for total growth inhibition (TGI) in [1], in test [2], in [3], in test [4], in test [5] and in test [6] was more than 100 µM in each case. Also, the TGI in [7] and in test [8] was more than 100 µM throughout.

In the case of `CCC[CH2][Sn]1([CH2]CCC)[O]C(=O)c2ccc(C)cc2[O]1`, the GI50 is 1 µM in test [1]; 1.14 µM in [2]; 1.34 µM in [3]; 0.818 µM in test [4]; 1.21 µM in [5]; 0.255 µM in test [7]. Further, the GI50 in [8] was 0.316 µM. Further, the TGI in [1] was 2.17 µM; in test [2], 2.38 µM; in test [3], 2.97 µM; in test [4], 2.1 µM; in test [5], 2.52 µM; in test [7], 1.25 µM. The same molecule registered a concentration for total growth inhibition (TGI) in test [8] of 1.16 µM.

For `C[n+]1ccc(-c2c3nc(c(-c4cc[n+](C)cc4)c4ccc([n-]4)c(-c4cc[n+](C)cc4)c4nc(c(-c5cc[n+](C)cc5)c5ccc2[n-]5)C=C4)C=C3)cc1.[I-].[Zn+2]`, the GI50 in test [1] was 8.39 µM; in [2] it was 49.6 µM; in [4], 23.6 µM; in [5] it was 38 µM; in [6], 19.1 µM; in test [7], 32.2 µM. For the same molecule, the GI50 in test [8] was 22 µM. Also, the TGI in test [1] was 28 µM; in test [2], more than 100 µM; in test [4], 61.1 µM; in [5] it was more than 100 µM; in test [6], 47.3 µM; in test [7], 94.7 µM. This molecule returned a TGI in test [8] of 52.8 µM.

`CSCCOC(=O)C(=[N+]=[N-])c1ccc([N+](=O)[O-])cc1`: the TGI in [1], in test [2], in [3], in test [4], in [5] and in [6] was more than 100 µM throughout. The TGI in test [7] and in [8] was more than 100 µM in each case.

For `NCCN1C(=O)C2C3c4ccccc4C(c4ccccc43)C2C1=O` (stereo not given), the TGI in [1], in [2], in test [3], in [4], in test [5] and in test [6] was more than 100 µM each time. In test [8], this molecule returned a TGI of more than 100 µM.

`COc1cc2c(cc1OC)C(=O)Cc1ccc(OC)c(OC)c1CN(C)CC2`: the TGI in test [1], in test [2], in test [3], in [4], in [6] and in [8] was more than 100 µM throughout.

For `OC1C2CCC1C1C3C=CC(C3)C21` (stereo not given), the total growth inhibition concentration (TGI) in [1], in test [3], in [4], in [5], in test [6] and in test [7] was more than 100 µM each time. Further, in [8], the TGI was more than 100 µM.

Regarding `CCOC(=O)c1ccc(NC(=O)SCCC(=O)O)cc1`, the TGI in test [1], in test [2], in [3], in [4], in [5] and in test [6] was more than 100 µM throughout. Further, the TGI in test [7] and in test [8] was more than 100 µM each time.

In the case of `c1ccc2c(c1)[nH]c1c2nc2ncccn21`, the TGI in test [1], in [2], in test [3], in [4], in test [5] and in test [6] was more than 100 µM throughout. Besides, the total growth inhibition concentration (TGI) in test [7] and in [8] was more than 100 µM each time.

Turning to `O=S(O)CCCSSc1ccccc1`, the TGI in [1], in [2], in test [3], in test [4], in [5] and in [6] was more than 100 µM in each case. The same molecule had a TGI in [8] of more than 100 µM.

Take `CN(C)CCCNC(=O)c1cncnc1Nc1ccc(OCc2cccc(F)c2)c(Cl)c1`: the GI50 is 1.66 µM in test [1]; 1.76 µM in [9]; 1.55 µM in test [2]; 1.71 µM in test [3]; 1.8 µM in [10]; 1.7 µM in test [5]. The GI50 in [6] is 2.08 µM; in test [8], 1.66 µM. The TGI in test [1] is 3.1 µM; in test [9] it was 3.2 µM; in test [2], 3.01 µM; in test [3], 3.34 µM; in test [10], 3.33 µM; in [5] it was 3.1 µM. For the same molecule, the values for the TGI in test [6] and in test [8] were 4.07 µM and 3.26 µM, respectively.

Regarding `CCOC(=O)/C(C#N)=C1/C(O)=C(C(=O)OC)C(C(=O)OC)=C1C(=O)OC`, the concentration for total growth inhibition (TGI) in test [1], in test [2], in [3], in test [4], in test [5] and in [6] was more than 100 µM in each case. The same molecule had a total growth inhibition concentration (TGI) in test [8] of more than 100 µM.

On to `O=C(NCC(O)CNC(=O)C(F)(F)F)C(F)(F)F`, for which the TGI in test [1], in [2], in test [3], in test [4], in [5] and in [7] was more than 100 µM each time. In [8], this molecule yielded a TGI of more than 100 µM.

In the case of `Cc1nn(C)cc1P(=S)(c1ccccc1)c1ccccc1`, the TGI in test [1], in test [2], in test [3], in test [4], in [5] and in test [6] was more than 100 µM each time. Further, the TGI in test [7] and in test [8] was more than 100 µM throughout.

On to `Cc1cn2c(/C=N/N=C(N)N)c(-c3cccnc3)nc2s1`, for which the GI50 was 12.9 µM in test [1]; 4.18 µM in test [3]; 2.4 µM in test [10]; 27.4 µM in test [4]; 11.9 µM in [5]; 18.7 µM in test [6]. Also, the GI50 in test [8] is 10.2 µM. Further, the TGI amounted to 26.8 µM in test [1]; 16.1 µM in [3]; 7.15 µM in test [10]; 69 µM in test [4]; 26.5 µM in test [5]; 45.5 µM in test [6]. In test [8], the TGI was 23.7 µM.

In the case of `NC(N)=NS(=O)(=O)c1ccc(Nc2c3ccccc3nc3c(C(=O)Nc4ccc(S(N)(=O)=O)cc4)ccc(Cl)c23)cc1`, the TGI in test [1], in [2], in [3], in test [4], in test [5] and in [7] was more than 100 µM in each case. For the same molecule, in [8], the TGI was more than 100 µM.

`CC1OC(OC2C(CO)OC(O[C@H]3CC[C@@]4(C)C(=CC[C@H]5[C@@H]6C[C@@H]7O[C@]8(CC[C@@H](C)CN8)[C@@H](C)[C@@H]7[C@@]6(C)CC[C@@H]54)C3)C(O)C2O)C(O)C(O)C1O` (stereo not given in full): the total growth inhibition concentration (TGI) in test [1], in test [3], in test [4], in test [5], in test [6] and in test [8] was more than 100 µM in each case.

For `OCC1OC(n2cnc3c(Cl)nc(Cl)cc32)C(O)C1O` (stereo not given), the GI50 in test [1], in test [9], in [2], in test [3], in test [10] and in test [4] was more than 100 µM in each case. The GI50 in test [5] was more than 100 µM. For the same molecule, the TGI in test [1], in [9], in test [2], in [3], in [10] and in test [4] was more than 100 µM in each case. This molecule also showed a TGI in test [5] of more than 100 µM.

For the molecule `Fc1cccc2c1cc1ccc3cccc4ccc2c1c34`, the TGI in test [1], in test [2], in test [3], in test [4], in [5] and in [6] was more than 100 µM each time. Besides, the TGI in test [7] and in test [8] was more than 100 µM in each case.

On to `O=C1c2ccccc2C(=O)N1C/C=C/CO`, for which the TGI in [1], in test [2], in test [4], in [6], in test [7] and in test [8] was more than 100 µM each time.

On to `CCOc1ccccc1NC(=O)CCc1n[nH]c(=S)o1`, for which the TGI in [1], in [3], in [5], in test [6], in test [7] and in test [8] was more than 100 µM throughout.

On to `COC(=O)c1ccc(Cl)cc1NC(=O)C1CCCCC1`, for which the TGI in [1], in test [2], in [3], in test [4], in [5] and in test [6] was more than 100 µM each time. Moreover, the concentration for total growth inhibition (TGI) in test [7] and in [8] was more than 100 µM throughout.

Turning to `CC[C@@H]1C[C@H]2CC3c4[nH]c5ccc(O)cc5c4CCN(C2)C31`, the TGI in test [1], in test [2], in [3], in test [4], in test [5] and in test [6] was more than 100 µM throughout. Also, the TGI in [7] and in test [8] was more than 100 µM each time.

For the molecule `O=c1oc2ccc(-n3c(=O)c4ccccc4c4ccccc4c3=O)cc2c2ccccc12`, the TGI in test [1], in test [2], in [3], in [10], in test [4] and in test [5] was more than 100 µM in each case. In addition, the values for the TGI in test [6] and in [8] were more than 100 µM and 63.6 µM, respectively.

`O=C(COC(=O)c1cccc2c(=O)c3ccccc3[nH]c12)Nc1ccccc1`: the TGI in test [1] was more than 100 µM; in test [2] it was more than 100 µM; in [3], more than 100 µM; in test [4] it was more than 100 µM; in test [5], more than 100 µM; in test [7], 54.3 µM. In test [8], the TGI is more than 100 µM.

On to `N#C/C(=C/Sc1ccccc1)C(=O)O`, for which the TGI in test [1] is 77.9 µM; in [3] it was 84.1 µM; in test [4], 36.9 µM; in [5], more than 100 µM; in test [6], 72.3 µM; in test [7], more than 100 µM. The concentration for total growth inhibition (TGI) in test [8] was 45.9 µM.

In general, TGI refers to the concentration giving total growth inhibition. Lower therefore signals greater sensitivity of the cells. As usually defined, the GI50 is the concentration that inhibits growth by half.
